# Experimental data published in patent publication EP4741439A1, “BLOCK COPOLYMER CONTAINING REPEATING UNIT OF POLY([R, S]BETA-HYDROXYBUTYRATE), NANOPARTICLES FORMED FROM SAID COPOLYMER, AND PRODUCTION AND USE OF THOSE” (University of Tsukuba, priority 2023, dated 2025).
# Columns and labels:
# [1] = system: cisplatin-induced acute kidney injury (AKI); assay: Protective effect on acute kidney injury by subcutaneous injection; type: in vivo, C57BL/6J male mice; conditions: subcutaneous injection about 250 mg in terms of BHB/kg, 6 hours prior to cisplatin 20 mg/kg; 72 hours after challenge
# Experimental: C57BL/6J male mice (8 weeks old) were divided into four groups for use in different treatments. Acute kidney injury was induced by intraperitoneal injection of cisplatin (20 mg/kg). A mouse was pretreated with subcutaneous injection of physiological saline (n = 11) or sodium β-hydroxybutyrate (at a dose in terms of BHB/kg of about 250 mg, n = 1) or Nano^BHB (at a dose in terms of BHB/kg of about 250 mg, n = 10) 6 hours prior to exposure to cisplatin. The healthy group (n = 8) was injected with physiological saline instead of cisplatin. 72 hours after the cisplatin challenge, the mouse was sacrificed, and blood plasma and kidney were collected. Renal function was assessed by measuring the levels of blood urea nitrogen (BUN), creatinine (CRE), aspartate transaminase (AST). […] In the figure, (A) represents a scheme of animal experiment, (B) is a graphical representation of data on blood urea nitrogen in plasma of an AKI mouse 3 days after injection of cisplatin, (C) is a graphical representation of data on creatinine, (D) is a graphical representation of data on aspartate transaminase, (E) is a presentation image of periodic acid Schiff (PAS) staining at 20 fold magnification of kidney tissue, and (F) is a graph summarizing data of the result of quantitative measurement of a damaged region of the kidney from a stained image. […]
# [2] = system: Bovine aortic endothelial cells (BAEC); assay: Cytotoxicity, WST cell viability; type: cell-based; conditions: 24 hours, BHB content from 0 to 25.4 mM
# Experimental: Bovine aortic endothelial cells (BAEC) (available from RIKEN (RIKEN, Tsukuba, Japan)) were pre-seeded on a 96 well (well) plate and incubated with either Nano^BHB or BHB at different concentrations with a BHB content of from 0 to 25.4 mM in a medium. After 24 hours, the medium was discarded, followed by addition of 100 µL of medium containing 10 µL of WST agent and incubation for 4 hours. In a final process, cell viability was measured based on a ratio of optical signals of a subject well and a water treatment group well at a wavelength of 450 nm in each well.
smiles,measurement,setting,value
CC(O)CC(=O)[O-].[Na+] (stereo not drawn) [sodium β-hydroxybutyrate],"Effect against cisplatin-induced acute kidney injury (BUN, CRE, AST, PAS staining)",[1],no decrease in renal function is observed
same,survival rate and morphology of the BAEC cells,[2],do not affect
